# Source: US20120083861A1, “SELECTIVE ACTIVATION OF NEURONS BY SINUSOIDAL ELECTRIC STIMULATION” (THE GENERAL HOSPITAL CORPORATION, priority 2010, published 2012)
# “Also recorded” adds a separate entry of the source.
# Tested on: retinal ganglion cells
# Test: Ganglion cell spiking response to electric stimulation near the soma with synaptic transmission blocked pharmacologically (cell-attached patch clamp, isolated retina)
# Assay type: cell-based, rabbit
# Conditions: for maximum number of elicited spikes in control versus with synaptic blocker: 1 sec, plot control (x) vs blocker (y), FIG. 5c, 5d; for response to 10-Hz stimulation (spikes elicited): 10 Hz sinusoidal stimulus near soma; for stimulus threshold in blocker relative to control / effect of the blockers on stimulus threshold: 50 μM CNQX or 100 μM CdCl2, paired t-test; for response to 25-Hz stimulation (spikes elicited): 25 Hz sinusoidal stimulus near soma; for synaptically mediated response of ganglion cells to stimulation: stimulation at 5-25 Hz
# Experimental: The present invention provides for responses to LFSS that are synaptic in origin. To determine whether presynaptic activation played a significant role in the high sensitivity of the soma region to LFSS, the response to stimulation near the soma was measured while synaptic transmission was blocked pharmacologically. The primary source of excitatory input to ganglion cells arises via glutamatergic release from the axon terminals of bipolar cells and is mediated through AMPA/kainate receptors on the ganglion cell dendrites.
# The care and use of animals followed all federal and institutional guidelines, and all protocols were approved by the Institutional Animal Care and Use Committees of the Boston VA Healthcare System and/or the Subcommittee of Research Animal Care of the Massachusetts General Hospital. New Zealand White Rabbits (˜2.5 kg) were anesthetized with injections of xylazine/ketamine and subsequently euthanized with an intracardial injection of pentobarbital sodium. Immediately after death, the eyes were removed. All procedures following eye removal were performed under dim red illumination. The front of the eye was removed, the vitreous was eliminated. The retina was separated from the retinal pigment epithelium and mounted, photoreceptor side down, to a 10-mm square piece of Millipore filter paper (0.45 μm HA Membrane Filter) that was mounted with vacuum grease to the recording chamber (˜1.0 ml volume). A 2-mm circle in the center of the Millipore paper allowed light from below to be projected on to the photoreceptors.
# Patch pipettes were used to make small holes in the inner limiting membrane, and ganglion cells with large somata were targeted under visual control. Spiking was recorded with a cell-attached patch electrode (4-8MΩ) filled with superfusate. For whole-cell recordings, the patch electrode was filled with (in mM): 113 CsMeSO4, 1 MgSO4, 7.8×10^−3 CaCl2, 0.1 BABTA, 10 HEPES, 4 ATP-Na2, 0.5 GTP-Na3, 5 lidocaine N-ethyl bromide (QX314-BR), 7.5 neurobiotin chloride, pH 7.2. […] Two silver-chloride coated silver wires served as the ground and were positioned at opposite edges of the recording chamber each approximately 15 mm from the targeted cell. The retina was continuously perfused at 4 mL/min with Ames' (pH 7.4) at 36° C., equilibrated with 95% O2 and 5% CO2. Pharmacological agents were applied to the bath by switching a 3-way stopcock to a 200 mL reservoir of Ames' containing one or more of the following blockers: 50 μM 6-cyano-7-nitroquinoxaline-2,3-dione (CNQX), 100 μM cadmium chloride (CdCl2).
# Pulse and sinusoidal stimuli were controlled by Multi-Channel Systems STG2004 hardware and software. Two silver-chloride coated silver wires served as the return; each was positioned approximately 8 mm from the targeted cell and approximately 12 mm from each other. The height of the stimulating electrode remained fixed at 25 μm above the inner limiting membrane. The stimulating electrode was placed either directly over the sodium-channel band on the proximal axon, or ˜1 mm lateral to the soma directly over the distal axon. Because of the use of patch clamp, spikes were clearly visible through the stimulus artifact. The efficacy of various stimulation waveforms (0.2-ms pulses and 5-Hz to 100-Hz sinusoids) was tested for the two different electrode positions.
# Pulsatile stimuli were biphasic pulses (equal and opposite rectangular phases) delivered at 10 pulses per second (phase duration: 200 μsec; interphase delay: 10 ms; cathodic phase first). The interphase delay was long enough for the neural response to the cathodic pulse to be completed before the onset of the anodic phase. For each stimulus amplitude, 15-30 pulses were delivered and there was a delay of >5 sec between stimulation epochs. Pulses of this duration and over the range of stimulus amplitudes produced either a single spike or no spike. If a spike was elicited, it immediately followed the cathodal pulse. […]
# [1] = single blocker in bath: 50 μM CNQX or 100 μM CdCl2 alone
# [2] = single blocker: 50 μM CNQX (n=6) or 100 μM CdCl2 (n=4)
structure (smiles),measurement,setting,value
"N#Cc1cc2c(cc1[N+](=O)[O-])=NC(=O)C(=O)N=2 [CNQX, 6-cyano-7-nitroquinoxaline-2,3-dione]",maximum number of elicited spikes in control versus with synaptic blocker,10-Hz stimulation,largely clustered around the x-axis
same,response to 10-Hz stimulation (spikes elicited),[1],greatly reduced; also recorded: completely eliminated
same,stimulus threshold in blocker relative to control,10 Hz stimulation,increased significantly
same,response to 25-Hz stimulation (spikes elicited),[2],greatly reduced; also recorded: blocks much of this response
same,maximum number of elicited spikes in control versus with synaptic blocker,25 Hz stimulation,mostly scattered between the line of unity slope and the x-axis
same,stimulus threshold in blocker relative to control,25 Hz stimulation,increased significantly
same,maximum number of elicited spikes in control versus with synaptic blocker,100-Hz stimulation,largely clustered around the line of unity slope
same,effect of the blockers on stimulus threshold,100-Hz stimulation,not significant
same,synaptically mediated response of ganglion cells to stimulation,CNQX applied,greatly reduced
"[Cl][Cd][Cl] [CdCl2, cadmium chloride]",maximum number of elicited spikes in control versus with synaptic blocker,10-Hz stimulation,largely clustered around the x-axis
same,response to 10-Hz stimulation (spikes elicited),"100 μM CdCl2 added to 50 μM CNQX, n=2/2",mostly eliminated
same,response to 10-Hz stimulation (spikes elicited),[1],completely eliminated; also recorded: greatly reduced
same,stimulus threshold in blocker relative to control,10 Hz stimulation,increased significantly
same,response to 25-Hz stimulation (spikes elicited),CNQX and CdCl2 both present (n=2),greatly reduced
same,response to 25-Hz stimulation (spikes elicited),[2],greatly reduced
same,maximum number of elicited spikes in control versus with synaptic blocker,25 Hz stimulation,mostly scattered between the line of unity slope and the x-axis
same,stimulus threshold in blocker relative to control,25 Hz stimulation,increased significantly
same,maximum number of elicited spikes in control versus with synaptic blocker,100-Hz stimulation,largely clustered around the line of unity slope
same,effect of the blockers on stimulus threshold,100-Hz stimulation,not significant
same,synaptically mediated response of ganglion cells to stimulation,cadmium applied in addition to CNQX,completely abolish
